Consider 8 compounds from ChEMBL document CHEMBL5634141 (Eur J Med Chem, 2023).

The source made the active and inactive calls.

The test system of series [1] is NCI-H358. The series can be described thus: Antiproliferative activity against human NCI-H358 cells expressing KRAS G12C mutant assessed as inhibition of cell growth incubated for 72 hrs by CCK-8 assay. Type of series: functional, cell-based. Particulars: NCI-H358, 72 h.
A further series relates to HepG2. In words: Antiproliferative activity against human HepG2 cells expressing KRAS assessed as inhibition of cell growth incubated for 72 hrs by CCK-8 assay. Particulars: HepG2, 72 h. Type of series: functional, cell-based. In general terms: Tetrazolium assays rely on reduction of a dye to a coloured formazan, in cell work by metabolically active cells.
Series [2] has as its system MIA PaCa-2. In words: Antiproliferative activity against human MIA PaCa-2 cells expressing KRAS G12C mutant assessed as inhibition of cell growth incubated for 72 hrs by CCK-8 assay. Type of series: functional, cell-based. The following applies: MIA PaCa-2, 72 h.
Another series relates to ASPC1. In words: Antiproliferative activity against human ASPC1 cells expressing KRAS G12D mutant assessed as inhibition of cell growth incubated for 72 hrs by CCK-8 assay. The format is functional, cell-based. The following applies: ASPC1, 72 h.
Series [3] can be described thus: Cytotoxicity against HEK293T cells assessed as inhibition of cell growth incubated for 72 hrs by CCK-8 assay. Type of series: toxicity, cell-based, HEK-293T. Particulars: human.
In a further series the test system is SW837. The series can be described thus: Antiproliferative activity against human SW837 cells expressing KRAS G12C mutant assessed as relative cell viability at 100 nM incubated for 72 hrs by CCK-8 assay. Type of series: functional. The following applies: read-out: Activity.
For series [4], the system named is MIA PaCa-2. In words: Antiproliferative activity against human MIA PaCa-2 cells expressing KRAS G12C mutant assessed as relative cell viability at 100 nM incubated for 72 hrs by CCK-8 assay. The format is functional. Particulars: read-out: Activity.
The subject of a further series is NCI-H23. The series can be described thus: Antiproliferative activity against human NCI-H23 cells expressing KRAS G12C mutant assessed as relative cell viability at 100 nM incubated for 72 hrs by CCK-8 assay. The format is functional. The following applies: read-out: Activity.
Another series deals with Calu-1. The series can be described thus: Antiproliferative activity against human Calu-1 cells expressing KRAS G12C mutant assessed as relative cell viability at 100 nM incubated for 72 hrs by CCK-8 assay. The format is functional. Particulars: read-out: Activity.
In series [5] the test system is NCI-H358. In words: Antiproliferative activity against human NCI-H358 cells expressing KRAS G12C mutant assessed as relative cell viability at 100 nM incubated for 72 hrs by CCK-8 assay. Type of series: functional. Particulars: read-out: Activity.
Series [6] can be described thus: Tmax in ICR mouse at 30 mg/kg, ip measured after 24 hrs by LC-MS/MS analysis. The format is ADME, organism-based. Particulars: in vivo.
Series [7] is described as follows: Clearance in ICR mouse at 2 mg/kg, iv measured after 24 hrs by LC-MS/MS analysis. Type of series: ADME, organism-based. Particulars: in vivo.
The test system of series [8] is MIA PaCa-2. In words: Inhibition of RAF-MEK-ERK pathway in human MIA PaCa-2 cells assessed as decrease in ERK phosphorylation at 100 nM incubated for 6 to 8 days by Western blot analysis. The format is cell-based. Particulars: time 6-8 day.
A short description of series [9]: AUC (0 to t) in ICR mouse at 2 mg/kg, iv measured after 24 hrs by LC-MS/MS analysis. The format is ADME, organism-based. Particulars: in vivo.
The nature of series [10]: Half life in ICR mouse at 2 mg/kg, iv measured after 24 hrs by LC-MS/MS analysis. The format is ADME, organism-based. The following applies: in vivo.
Series [11] is described as follows: Volume of distribution at steady state in ICR mouse at 2 mg/kg, iv measured after 24 hrs by LC-MS/MS analysis. Type of series: ADME, organism-based. The following applies: in vivo.
Series [12] can be described thus: Inhibition of PI3K-AKT-mTOR pathway in human MIA PaCa-2 cells assessed as decrease in […] phosphorylation at 100 nM incubated for 6 to 8 days by Western blot analysis. Particulars: time 6-8 day. The format is cell-based. (In western blotting, separated proteins are transferred to a membrane and probed.)
Series [13] can be described thus: Half life in ICR mouse at 30 mg/kg, ip measured after 24 hrs by LC-MS/MS analysis. Type of series: ADME, organism-based. The following applies: in vivo.
Series [14] can be described thus: AUC (0 to t) in ICR mouse at 30 mg/kg, ip measured after 24 hrs by LC-MS/MS analysis. The following applies: in vivo. The format is ADME, organism-based.
Series [15] in a line: AUC (0 to infinity) in ICR mouse at 30 mg/kg, ip measured after 24 hrs by LC-MS/MS analysis. The format is ADME, organism-based. Particulars: in vivo.
Series [16] in a line: Inhibition of PI3K-AKT-mTOR pathway in human NCI-H358 cells assessed as decrease in […] phosphorylation at 100 nM incubated for 6 to 8 days by Western blot analysis. The format is cell-based. Particulars: time 6-8 day.
For series [17], the system named is NCI-H358. In words: Inhibition of RAF-MEK-ERK pathway in human NCI-H358 cells assessed as decrease in ERK phosphorylation at 100 nM incubated for 6 to 8 days by Western blot analysis. Type of series: cell-based. Particulars: time 6-8 day.
A short description of series [18]: AUC (0 to infinity) in ICR mouse at 2 mg/kg, iv measured after 24 hrs by LC-MS/MS analysis. Particulars: in vivo. The format is ADME, organism-based.
The nature of series [19]: Cmax in ICR mouse at 2 mg/kg, iv measured after 24 hrs by LC-MS/MS analysis. The format is ADME, organism-based. Particulars: in vivo.
A short description of series [20]: Cmax in ICR mouse at 30 mg/kg, ip measured after 24 hrs by LC-MS/MS analysis. The format is ADME, organism-based. Particulars: in vivo.
For series [21], the system named is von Hippel-Lindau disease tumor suppressor/GTPase KRas (Homo sapiens), P01116+P40337 [G12C]. In words: PROTAC activity at VHL/KRAS G12C mutant in human NCI-H358 cells assessed as induction of protein degradation at 10 to 1000 nM incubated for 48 hrs by Western blotting analysis. Type of series: cell-based. The following applies: dose 10-1000 nM.
The test system is the same in series [22]. The series can be described thus: PROTAC activity at VHL/KRAS G12C mutant in human MIA PaCa-2 cells assessed as induction of protein degradation at 10 to 1000 nM incubated for 48 hrs by Western blotting analysis. The following applies: dose 10-1000 nM. The format is cell-based.

Consider `C=CC(=O)N1CCN(c2nc(=O)n(-c3c(C)ccnc3C(C)C)c3nc(-c4c(F)cccc4OCCN4CCN(CCCC(=O)N[C@H](C(=O)N5C[C@H](O)C[C@H]5C(=O)NCc5ccc(-c6scnc6C)cc5)C(C)(C)C)CC4)c(F)cc23)[C@@H](C)C1`, for which the IC50 is 233 nM in the series on NCI-H358 [1], above 10000 nM in the series with HepG2, 337 nM with MIA PaCa-2 [2] and above 10000 nM in the series with ASPC1. Also, the IC50 at 72 h in [3] was above 10000 nM.
As for `C=CC(=O)N1CCN(c2nc(=O)n(-c3c(C)ccnc3C(C)C)c3nc(-c4c(F)cccc4OCc4cn(CCC(=O)N[C@H](C(=O)N5C[C@H](O)C[C@H]5C(=O)NCc5ccc(-c6scnc6C)cc5)C(C)(C)C)nn4)c(F)cc23)[C@@H](C)C1`, the IC50 in the series on NCI-H358 [1] is 222 nM; in the series on HepG2 it was above 10000 nM; in the series with MIA PaCa-2 [2] it was 200 nM; in the series on ASPC1, above 10000 nM. In addition, the IC50 at 72 h in [3] was above 10000 nM.
As for `C=CC(=O)N1CCN(c2nc(=O)n(-c3c(C)ccnc3C(C)C)c3nc(-c4c(F)cccc4OCCOCC(=O)Nc4cccc5c4CN(C4CCC(=O)NC4=O)C5=O)c(F)cc23)[C@@H](C)C1` (some centres undefined), the IC50 in the series with NCI-H358 [1] is 631 nM; in the series on HepG2, above 10000 nM; in the series with MIA PaCa-2 [2], 434 nM; in the series on ASPC1 it was above 10000 nM. For the same compound, in series [3], the IC50 at 72 h was above 10000 nM.
Turning to `CCN1CCN(c2ccc(Nc3cc(N(C)C(=O)Nc4c(Cl)c(OC)cc(OC)c4Cl)ncn3)cc2)CC1` [INFIGRATINIB], the viability at 0.1 µM in the series on SW837 came to 0.85%; with MIA PaCa-2 [4] it was 0.84%; with NCI-H23, 0.89%; in the series with Calu-1, 0.86%; in the series with NCI-H358 [5] it was 0.88%.
As to `C=CC(=O)N1CCN(c2nc(=O)n(-c3c(C)ccnc3C(C)C)c3nc(-c4c(F)cccc4OCc4cn(CCCCC(=O)N[C@H](C(=O)N5C[C@H](O)C[C@H]5C(=O)NCc5ccc(-c6scnc6C)cc5)C(C)(C)C)nn4)c(F)cc23)[C@@H](C)C1`, the IC50 is 463 nM in the series on NCI-H358 [1], above 10000 nM with HepG2, 660 nM in the series with MIA PaCa-2 [2] and above 10000 nM in the series on ASPC1. In addition, in series [3], the IC50 at 72 h is above 10000 nM.
On to `C=CC(=O)N1CCN(c2nc(=O)n(-c3c(C)ccnc3C(C)C)c3nc(-c4c(O)cccc4F)c(F)cc23)[C@@H](C)C1` [SOTORASIB], for which, in series [6], the Tmax came out at 15 min. The same compound came in with a clearance in series [7] of 110 mL/min/kg. Besides, the inhibition entry (in the series on MIA PaCa-2 [8]; in series [12]; in [16]; with NCI-H358 [17]) was “inactive” throughout. The values for the AUC(0-t) at 24 h in series [9] and in series [14] were 311 ng·h/mL and 9440 ng·h/mL, respectively. The t1/2 in [10] was determined as 15.1 min. In series [11], this compound gave a Vdss of 1.62 L/kg. Also, the IC50 in the series on NCI-H358 [1] was 12 nM; in the series with HepG2, above 10000 nM; in the series on MIA PaCa-2 [2], 18 nM; with ASPC1, above 10000 nM. In addition, the half-life in [13] is 238 min. The compound also showed an AUC(0-inf) in series [15] of 9450 ng·h/mL. In series [18], this compound gave an AUC of 312 ng·h/mL. Also, the figures for the Cmax in [19] and in [20] were 863 ng/mL and 9840 ng/mL, respectively. Also, the IC50 at 72 h in series [3] was above 10000 nM.
As to `C=CC(=O)N1CCN(c2nc(=O)n(-c3c(C)ccnc3C(C)C)c3nc(-c4c(F)cccc4OCCOCCOCC(=O)Nc4cccc5c4CN(C4CCC(=O)NC4=O)C5=O)c(F)cc23)[C@@H](C)C1` (some centres undefined), the IC50 was 765 nM with NCI-H358 [1], above 10000 nM in the series on HepG2, 690 nM in the series on MIA PaCa-2 [2] and above 10000 nM with ASPC1. Besides, the IC50 at 72 h in [3] was above 10000 nM.
For `C=CC(=O)N1CCN(c2nc(=O)n(-c3c(C)ccnc3C(C)C)c3nc(-c4c(F)cccc4OCC4CCN(CCCC(=O)N[C@H](C(=O)N5CC(O)C[C@H]5C(=O)NCc5ccc(-c6scnc6C)cc5)C(C)(C)C)CC4)c(F)cc23)[C@@H](C)C1` (some centres undefined), the IC50 amounted to 588 nM in the series on NCI-H358 [1] and 278 nM in the series with MIA PaCa-2 [2]. In addition, the result in [21] and in [22] was inactive.

As usually defined, the IC50 is the concentration that inhibits the measured activity by half. The term Tmax denotes the time from dosing to the highest level. In general, clearance refers to the volume of plasma or blood freed of the substance per unit of time. As usually defined, the AUC(0-t) is exposure summed from dosing to a finite time, without extrapolation to infinity. A higher AUC(0-t) goes with high exposure. By Vdss is commonly meant the apparent volume that relates the amount in the body to the concentration in plasma or blood. The low end stands for confinement near the circulation, the high end for extensive tissue distribution. Usually half-life stands for the time needed for the level to fall by half in the phase considered. As a reminder, the AUC(0-inf) is the area under the concentration-time curve extrapolated to infinity. The low end stands for less exposure, the high end for more exposure. One may read the AUC as concentration integrated over time. Low values mean low exposure, high ones high exposure. By Cmax is commonly meant the highest concentration seen after dosing.
